Measured values from article PMC4147587, “Synthesis and Analgesic Effects of μ-TRTX-Hhn1b on Models of Inflammatory and Neuropathic Pain” (Toxins, 2014).
Entries after “also recorded” stand apart in the source; their conditions may differ. Like-named read-outs stand apart in the source and are kept apart here.

Columns and labels:
[1] = system: Nav1.2, Nav1.3, Nav1.4, Nav1.5, Nav1.7; conditions: reference not given; cited from earlier work
[2] = system: neuronal TTX-S VGSCs in rat dorsal root ganglion (DRG) cells; conditions: cited from earlier work
Text: μ-TRTX-Hhn1b (HNTX-IV) is a 35-residue peptide from tarantula Ornithoctonus hainana (Haplopelma hainanum) venom. The amino acid sequence is […]. The peptide amidated at its C-terminal has a high proportion of basic residues and is crosslinked by three disulfide bonds. […] Therefore, the rotarod latency test was used to access the motor side effects of μ-TRTX-Hhn1b in rats.

[3] = system: acetic acid-induced abdominal constriction responses in mice; format: in vivo, mouse (ICR); conditions: 15 min before acetic acid, 30 min count, n = 6
Experimental: The abdominal constriction responses induced by intraperitoneal (i.p.) injection of 0.2 mL acetic acid (0.8%), including contraction of the abdominal muscle and stretching of the hind limbs, were performed according to procedures described by Collier et al.. Mice (male, weighing 20–25 g) were pre-treated with the test samples dissolved in saline by intraperitoneal (i.p.) injection for 15 min prior to acetic acid injection. Control animals received the same volume of vehicle (saline: 0.9% sodium chloride solution). After the challenge, mice were individually placed into open polyvinyl cages (30 cm × 40 cm × 30 cm), and the abdominal constriction responses were counted cumulatively during 30 min, which was represented as the sum of constriction (S). The inhibition of pain responses was calculated by the equation as follows: inhibition of pain responses % = (Ssaline − Sdrug)/Ssaline per animal. One hundred percent corresponds to complete reversal of pain, equivalent to the non-injury value, and 0% corresponds to the value from the saline group.

[4] = system: motor coordination of rats (latency to fall off the rotarod); format: in vivo, rat (Sprague-Dawley); conditions: vs baseline, n = 6
Experimental: Motor activity was assessed using a rotarod apparatus for rats (Coulbourn Instruments, Lehigh Valley, PA, USA). The rotarod might be set at any speed from 0 to 50 rpm. For motor coordination assessment, rats were trained for 2 days by walking them each day on an accelerating rotarod from 4 to 40 rpm for 10 min. […] Motor performance was considered as the latency to fall off the rotarod apparatus determined from the mean time in three trials for each rat at each time.

[5] = system: formalin-induced pain behaviors in rats; assay: formalin-induced inflammatory rat model; format: in vivo, rat (Sprague-Dawley); conditions: for pain score over the 40 min period: mean ± SEM, saline 569.2 ± 43.5 s
Experimental: Acute and chronic nociceptive responses were measured using the rat paw formalin test as descried by Dubission and modified by Malmberg. Adult Sprague-Dawley rats (male, weighing 180–220 g) were used for this behavioral test. During the test, each rat was placed into open polyvinyl cages (30 cm × 40 cm × 30 cm) and at least 30 min before administration of the toxin. All agents were administered 30 min prior to s.c. intraplantar formalin injection. A volume of 50 μL formalin (5%) solution was used as previously described and injected into the plantar surface of one hind paw. Lifting, favoring, licking, shaking and flinching of the injected paw were recorded as nociceptive responses. The total time of the nociceptive response was measured every 5 min and […] (mean ± SEM). Recording of nociceptive behavior commenced immediately after formalin injection and was continued for 40 min.

[6] = system: SNI-induced mechanical allodynia in rats; format: in vivo, rat (Sprague-Dawley); conditions: for withdrawal threshold to von Frey hair: 200 μg/kg i.p., mean ± SEM, n = 6
Experimental: The spared nerve injury was produced as described previously by Decosterd and Woolf. The rats (male, weighing 180–220 g) were anesthetized with ketamine (300 mg/kg) and placed on a pad. Aseptic techniques were used, and the sciatic nerve and its three terminal branches, including the sural, common peroneal and tibial nerves, were exposed, ligated and transected. Muscle and skin were closed with 4-0 polydiaxone and wound clips. Sham controls involved the exposure of the sciatic nerve and its branches without any lesion.
Allodynia was assessed 3 days after SNI surgery, and only rats that developed allodynia, as defined by a significant decrease in their mechanical threshold using von Frey filament, were used. Tactile allodynia was assessed with calibrated von Frey filaments (Stoelting, Wood Dale, IL, USA) using an up-down paradigm. Mechanical sensitivity was determined by applying a series of twenty calibrated von Frey filaments (0.008–2 g, 2–60 g) to the plantar aspect of the left hind paw. […] A response was indicated by brisk withdrawal of the hind paw.

[7] = system: mice and rats; assay: observation of death and abnormal behaviors in the pain tests; format: in vivo

SMILES: CC[C@H](C)[C@H](NC(=O)[C@H](CCC(=O)O)NC(=O)[C@H](Cc1ccc(O)cc1)NC(=O)[C@H](CCCCN)NC(=O)[C@@H]1CSSC[C@@H]2NC(=O)[C@H](CCC(N)=O)NC(=O)[C@H](CC(=O)O)NC(=O)[C@H](CC(N)=O)NC(=O)[C@H](CO)NC(=O)[C@@H]3CCCN3C(=O)[C@H](CC(N)=O)NC(=O)[C@@H]3CSSC[C@H](NC(=O)[C@H](C(C)C)NC(=O)[C@H](CC(C)C)NC(=O)[C@H](CC(N)=O)NC(=O)[C@H](CO)NC(=O)[C@H](CO)NC(=O)[C@H](CCCCN)NC(=O)[C@H](CSSC[C@H](NC(=O)[C@@H](N)CCC(=O)O)C(=O)N[C@@H](CC(C)C)C(=O)NCC(=O)N[C@@H](Cc4ccccc4)C(=O)NCC(=O)N[C@@H](CCCCN)C(=O)NCC(=O)N3)NC2=O)C(=O)N[C@@H](CO)C(=O)N[C@@H](CCCNC(=N)N)C(=O)N[C@@H](CCCCN)C(=O)N[C@@H](Cc2c[nH]cn2)C(=O)N[C@@H](CCCNC(=N)N)C(=O)N[C@@H](Cc2c[nH]c3ccccc23)C(=O)N1)C(N)=O [μ-TRTX-Hhn1b]
- sensitivity of Nav1.7 relative to other channels [1]: Nav1.7 is the most sensitive to μ-TRTX-Hhn1b
- inhibition of other TTX-S VGSCs ([2]; at a high concentration, reference not given): also inhibits other TTX-S VGSCs in rat DRG cells at a high concentration
- inhibition of neuronal TTX-S VGSCs [2]: specifically inhibits the neuronal TTX-S VGSCs in rat dorsal root ganglion (DRG) cells
- inhibition of pain responses (abdominal constriction) ([3]; 25.0 μg/kg i.p., p < 0.05): 25.2%
- inhibition of pain responses (abdominal constriction) ([3]; 100 μg/kg i.p., p < 0.01): 55.6%
- latency to fall off the rotarod ([4]; 0.1 mg/kg, 30 min and 90 min after administration): no significant change in latencies to fall off the rotarod
- latency to fall off the rotarod ([4]; 0.2 mg/kg, 30 min after administration, p < 0.05): significantly (p < 0.05) reduced latencies
- latency to fall off the rotarod ([4]; 0.2 mg/kg, 90 min after administration): not at 90 min
- pain score over the 40 min period ([5]; 50 µg/kg i.p., n = 6, p < 0.05): 458.5 ± 59.9 s
- pain score over the 40 min period ([5]; 100 µg/kg i.p., n = 6, p < 0.01): 346.0 ± 46.2 s
- pain score over the 40 min period ([5]; 200 µg/kg i.p., n = 6, p < 0.01): 199.8 ± 32.6 s
- antinociceptive activity compared with morphine ([5]; 200 µg/kg peptide vs 100 µg/kg morphine, i.p.): antinociceptive activity similar to 100 µg/kg of morphine
- effect on pain responses, early phase ([5]; early phase (0–5 min), 50, 100 or 200 µg/kg i.p.): not in the early phases; also recorded: little effect
- suppression of pain behaviors, late phase ([5]; late phase (15–30 min), 50, 100 or 200 µg/kg i.p.): dose-dependent suppression of pain behaviors; also recorded: significantly inhibited
- reversal of SNI-induced mechanical allodynia ([6]; 50 µg/kg, 100 µg/kg or 200 µg/kg i.p., n = 6 per group): depressed in a dose-dependent manner; also recorded: significantly reversed SNI-induced allodynia
- withdrawal threshold to von Frey hair ([6]; 60 min after injection, saline 1.4 ± 0.4 g, p < 0.01): 8.8 ± 0.9 g
- withdrawal threshold to von Frey hair ([6]; 100 min after injection, p < 0.05): 4.0 ± 0.6 g
- duration of antinociceptive effect ([6]; i.p.): more than 100 min
- duration of antinociceptive effect relative to mexiletine ([6]; i.p.): about two-fold longer than that of mexiletine
- side effects ([7]; 0.2 mg/kg): inactivity and paralysis
- abnormal behaviors ([7]; highest dose, some mice and rats): inactivity and paralysis, were observed in some mice and rats
- animal death ([7]; in the three pain tests / all tests): no animal death was observed; also recorded: no animal death occurred in all tests
